Values quoted from earlier work as cited in patent US8309122B2 (Endo Pharmaceuticals Inc., priority 2001, dated 2012).

Conditions: metabolized principally in the liver

CN1CC[C@]23c4c5ccc(O)c4O[C@H]2C(=O)CC[C@@]3(O)[C@H]1C5.Cl [Oxymorphone, 14-hydroxydihydromorphinone hydrochloride]
oral bioavailability: about 10%
